Series [1] is described as follows: Acute toxicity in male BALB/c mouse assessed appearance of aberrant alveolar morphology at 20 to 30 mg/kg, ip measured after 7 days by H and E staining based analysis. The series is classed as organism-based. To be noted: in vivo, 168 h, dose 20-30 mg/kg, time 7 day.
The nature of series [2]: Acute toxicity in male BALB/c mouse assessed appearance of lung congestion at 20 to 30 mg/kg, ip measured after 7 days by H and E staining based analysis. The class given is organism-based. To be noted: in vivo, 168 h, dose 20-30 mg/kg, time 7 day.
Series [3] is described as follows: Stability in mouse serum assessed as half life measured after 1 hr by HPLC analysis. The class given is ADME, cell-free.
Series [4] can be described thus: Acute toxicity in male BALB/c mouse assessed effect on liver at 20 to 30 mg/kg, ip measured after 7 days by H and E staining based analysis. The class given is organism-based. To be noted: in vivo, 168 h, dose 20-30 mg/kg, time 7 day.
Series [5] in a line: Acute toxicity in male BALB/c mouse assessed effect on lung at 20 to 30 mg/kg, ip measured after 7 days by H and E staining based analysis. The class given is organism-based. To be noted: in vivo, 168 h, dose 20-30 mg/kg, time 7 day.
Series [6] in a line: Acute toxicity in male BALB/c mouse assessed appearance of augmented alveolar interstitial space at 20 to 30 mg/kg, ip measured after 7 days by H and E staining based analysis. The series is classed as organism-based. To be noted: in vivo, 168 h, dose 20-30 mg/kg, time 7 day.
The nature of series [7]: Acute toxicity in male BALB/c mouse assessed infiltration of inflammatory cells at 20 to 30 mg/kg, ip measured after 7 days by H and E staining based analysis. The series is classed as organism-based. To be noted: in vivo, 168 h, dose 20-30 mg/kg, time 7 day.
Series [8] is described as follows: Acute toxicity in male BALB/c mouse assessed infiltration of inflammatory cells in spleen at 20 to 30 mg/kg, ip measured after 7 days by H and E staining based analysis. The class given is organism-based. To be noted: in vivo, 168 h, dose 20-30 mg/kg, time 7 day.
Series [9] can be described thus: Acute toxicity in male BALB/c mouse assessed infiltration of inflammatory cells in kidney at 20 to 30 mg/kg, ip measured after 7 days by H and E staining based analysis. The class given is organism-based. To be noted: in vivo, 168 h, dose 20-30 mg/kg, time 7 day.
Series [10] is described as follows: Stability in mouse serum assessed as retention time measured after 1 hr by RP-HPLC analysis. The class given is ADME, cell-free.
Series [11] in a line: Acute toxicity in male BALB/c mouse assessed lethal dose administered as ip dose measured for 7 days. The class given is organism-based. To be noted: in vivo, time 7 day.

Take `CC(C)CCCCC(=O)N[C@@H](CCN)C(=O)N[C@H](C(=O)N[C@@H](CCN)C(=O)N[C@H]1CCNC(=O)[C@H]([C@@H](C)O)NC(=O)[C@H](CCN)NC(=O)[C@H](CCN)NC(=O)[C@H](CC(C)C)NC(=O)[C@@H](Cc2ccccc2)NC(=O)[C@H](CCN)NC1=O)[C@@H](C)O.CC[C@H](C)CCCCC(=O)N[C@@H](CCN)C(=O)N[C@H](C(=O)N[C@@H](CCN)C(=O)N[C@H]1CCNC(=O)[C@H]([C@@H](C)O)NC(=O)[C@H](CCN)NC(=O)[C@H](CCN)NC(=O)[C@H](CC(C)C)NC(=O)[C@@H](Cc2ccccc2)NC(=O)[C@H](CCN)NC1=O)[C@@H](C)O`: the Activity result in series [1], in [2], in [4], in [5], in series [6] and in series [7] was “Toxic” each time. The Activity result in [8] and in [9] was “Non-toxic” throughout. The half-life in series [3] is 10.5 h. In addition, the Retention_time in series [10] amounted to 13.545 min. The molecule further showed an LD50 at 168 h in series [11] of 23.6 mg/kg.

What is called half-life is the time needed for the level to fall by half in the phase considered. Broadly, the LD50 is the dose expected to kill half of the subjects tested. A higher LD50 goes with a less toxic substance.

The record behind these values is ChEMBL document CHEMBL6114980, “Single or double lipid-modified ultra-short antimicrobial peptides for treating infections caused by resistant bacteria” (Eur J Med Chem, 2025).
